Experiments:
[1] = test system: Human hair follicles in growth phase (anagen); assay: Human hair follicle growth assay; assay type: cell-based; conditions: for % Reduction of human hair follicle growth / Hair follicle length increase (mm) Treated: day 0 to day 7 (Table II)
Excerpt: Human Hair Follicle Growth Assay
Tissue source—Human skin was obtained from a plastic surgeon as a by-product of face-lift procedures. Immediately after removal, the skin was placed in Williams E medium containing antibiotics and refrigerated. The Williams E medium is a commercially obtained medium which has been formulated with essential nutrients for maintaining viability of tissues or cells such as of hair follicle in an in-vitro environment.
Hair Follicle Isolation and Culture—Human hair follicles in growth phase (anagen) were isolated from face-lift tissue (obtained from plastic surgeons) under dissecting scope using a scalpel and watchmakers forceps. The skin was sliced into thin strips exposing 2-3 rows of follicles that could readily be dissected. Follicles were placed into 0.5 ml William's E medium (Life Technologies, Gaithersburg, Md.) supplemented with 2 mM L-glutamine, 10 μg/ml insulin, 10 ng/ml hydrocortisone, 100 units of penicillin, 0.1 mg/ml streptomycin and 0.25 μg/ml amphotericin B. The follicles were incubated in 24-well plates (1 follicle/well) at 37° C. in an atmosphere of 5% CO2 and 95% air. Thiazolidinediones are dissolved into dimethyl sulfoxide as 100-fold stock solution. The control hair follicles were treated with dimethyl sulfoxide without thiazolidinedione. The follicles were photographed in the 24-well plates under the dissecting scope at a power of 10×. Typically, image recordings were made on day 0 (day follicles were placed in culture), and again on day 7. The length of Hair follicle was assessed using an image analysis software system (Jasc Image Robot). The growth of hair fiber was calculated by the subtracting the follicle length on day 0 from that determined on day 7.

[2] = test system: Golden Syrian hamster flank organs (hair growth); assay: Golden Syrian hamster assay (hair mass assay); assay type: in vivo; conditions: topical, three weeks
Excerpt: Golden Syrian Hamster Assay
Male intact Golden Syrian hamsters are considered acceptable models for human beard hair growth in that they display oval shaped flank organs, one on each side, each about 8 mm. in major diameter. These organs produce fine light colored hair typical of the animal pelage found on the body. In response to androgens the flank organs produce dark coarse hair similar to male human beard hair. To evaluate the effectiveness of a composition in reducing hair growth, the flank organs of each of a group of hamsters are depilated by applying a thioglycolate based chemical depilatory (Surgex) and/or shaved. To one organ of each animal 10 μl. of vehicle alone once a day is applied, while to the other organ of each animal an equal amount of vehicle containing the ligand under evaluation is applied. After three weeks of topical applications (one application per day for five days a week), the flank organs are shaved and the amount of recovered hair (hair mass) from each is weighed. Percent-reduction of hair growth is calculated by subtracting the hair mass (mg) value of the test compound treated side from the hair mass value of the vehicle treated side; the delta value obtained is then divided by the hair mass value of the vehicle treated side, and the resultant number is multiplied by 100.
The above-described assay will be referred to herein as the “Golden Syrian hamster” assay or “hair mass” assay. Preferred compositions provide a reduction in hair growth of at least about 15% and more preferably at least about 35%, when tested in the Golden Syrian hamster assay.

In the case of `O=C1NC(=S)SC1=Cc1cc([N+](=O)[O-])ccc1Sc1ccccc1` [5-(5-nitro-2-phenylsulfanyl-benzylidene)-2-thioxo-thiazolidin-4-one], the “% Reduction” value ([1]; 0.1 μM (Table VI)) is reported as 66.9 ± 15.2%, the “Hair follicle length increase (mm)” value ([1]; 0.1 μM (Table VI)) is reported as 0.37 ± 0.17 mm and the “% Reduction” value ([1]; 0.5 μM (Table VI)) is reported as 85.7 ± 15.2%. For the same molecule, the “Hair follicle length increase (mm)” value ([1]; 0.5 μM (Table VI)) was 0.16 ± 0.17 mm, the “% Reduction” value ([1]; 1.0 μM (Table VI)) was 93.7 ± 7.1% and the “Hair follicle length increase (mm)” value ([1]; 1.0 μM (Table VI)) was 0.07 ± 0.08 mm. For the same molecule, the “% Reduction of human hair follicle growth” value ([1]; 10 μM) was 94.6 ± 3.9%, the “Hair follicle length increase (mm) Treated” value ([1]; 10 μM) was 0.11 ± 0.08 mm and the “Effect on human hair growth (in words)” value ([1]; human hair follicle growth assay, summary of Table II) was “can reduce human hair growth”.

`CC1(COc2ccc(CC3SC(=O)NC3=O)cc2)CCCCC1` (centres unmarked) [Ciglitazone, ciglitazone] was tested, and the “% Reduction of hamster hair mass” value ([2]; dose 1.3%, vehicle A) was 22.7 ± 5.8%, the “Treated (mg) hair mass” value ([2]; dose 1.3%, vehicle A) was 2.78 ± 0.23 mg and the “% Reduction of hamster hair mass” value ([2]; dose 1.3%, vehicle A, listed as ciglitazone) was 22.7%. The “% Reduction” value ([1]; 3 μM (Table III)) was 38.2 ± 23.0%, the “Hair follicle length increase (mm)” value ([1]; 3 μM (Table III)) was 1.34 ± 0.5 mm and the “% Reduction” value ([1]; 6 μM (Table III)) was 75.1 ± 13.8%. For the same molecule, the “Hair follicle length increase (mm)” value ([1]; 6 μM (Table III)) was 0.54 ± 0.3 mm, the “% Reduction” value ([1]; 9 μM (Table III)) was 90.8 ± 9.2% and the “Hair follicle length increase (mm)” value ([1]; 9 μM (Table III)) was 0.2 ± 0.2 mm. For the same molecule, the “% Reduction of human hair follicle growth” value ([1]; 20 μM) was 87.5 ± 15.6% and the “Hair follicle length increase (mm) Treated” value ([1]; 20 μM) was 0.19 ± 0.24 mm.

For `CCc1ccc(CCOc2ccc(CC3SC(=O)NC3=O)cc2)nc1` (centres unmarked) [Pioglitazone, pioglitazone], the “% Reduction of hamster hair mass” value ([2]; dose 5%, vehicle B) was 47.7 ± 4.1%, the “Treated (mg) hair mass” value ([2]; dose 5%, vehicle B) was 1.32 ± 0.06 mg and the “% Reduction of hamster hair mass” value ([2]; dose 5%, vehicle B, listed as pioglitazone) was 47.7%. The “% Reduction” value ([1]; 15 μM (Table IV)) was 30.2 ± 19.8%, the “Hair follicle length increase (mm)” value ([1]; 15 μM (Table IV)) was 0.67 ± 0.19 mm and the “% Reduction” value ([1]; 30 μM (Table IV)) was 76.0 ± 16.7%. The “Hair follicle length increase (mm)” value ([1]; 30 μM (Table IV)) was 0.23 ± 0.16 mm, the “% Reduction” value ([1]; 45 μM (Table IV)) was 89.6 ± 14.6% and the “Hair follicle length increase (mm)” value ([1]; 45 μM (Table IV)) was 0.1 ± 0.14 mm. The “% Reduction of human hair follicle growth” value ([1]; 50 μM) was 86.7 ± 6.2% and the “Hair follicle length increase (mm) Treated” value ([1]; 50 μM) was 0.15 ± 0.07 mm.

For `CN(CCOc1ccc(CC2SC(=O)NC2=O)cc1)c1ccccn1` (centres unmarked) [Rosiglitazone, rosiglitazone], the “% Reduction of hamster hair mass” value ([2]; dose 10%, vehicle A) was 40.0 ± 5.0%, the “Treated (mg) hair mass” value ([2]; dose 10%, vehicle A) was 1.78 ± 0.71 mg and the “% Reduction of hamster hair mass” value ([2]; dose 10%, vehicle A, listed as rosiglitazone) was 40%. For the same molecule, the “% Reduction” value ([1]; 20 μM (Table V)) was 34.8 ± 20.6%, the “Hair follicle length increase (mm)” value ([1]; 20 μM (Table V)) was 0.92 ± 0.29 mm and the “% Reduction” value ([1]; 40 μM (Table V)) was 47.5 ± 10.6%. The “Hair follicle length increase (mm)” value ([1]; 40 μM (Table V)) was 0.74 ± 0.15 mm, the “% Reduction” value ([1]; 60 μM (Table V)) was 63.1 ± 14.1% and the “Hair follicle length increase (mm)” value ([1]; 60 μM (Table V)) was 0.52 ± 0.2 mm. The “% Reduction of human hair follicle growth” value ([1]; 100 μM) was 75.2 ± 16.5% and the “Hair follicle length increase (mm) Treated” value ([1]; 100 μM) was 0.24 ± 0.16 mm.

For `Cc1c(C)c2c(c(C)c1O)CCC(C)(COc1ccc(CC3SC(=O)NC3=O)cc1)O2` (centres unmarked) [Troglitazone, troglitazone], the “% Reduction of human hair follicle growth” value ([1]; 100 μM) was 91.5 ± 6.2% and the “Hair follicle length increase (mm) Treated” value ([1]; 100 μM) was 0.11 ± 0.08 mm.

Reference: patent US20030220300A1, “Reduction of hair growth” (priority 2002, published 2003)
